Type in all cases: cell-based
For one experiment, the target named is BaF3_HER2YVMA cells (Homo sapiens, UniProt P04626, DUP772-775, cells depend on it). In words: Cell growth inhibition assay (CellTiterGlo), BaF3_HER2YVMA. As to conditions: 3-day treatment, CellTiterGlo, read-out: Cell growth inhibition activity, HER2 - YVMA. Background: In ATP-based viability assays light output follows the ATP content of the culture.
A further experiment has as its target BaF3_EGFRWT cells (Homo sapiens, UniProt P00533). In words: Cell growth inhibition assay (CellTiterGlo), BaF3_EGFRWT. Conditions: 3-day treatment, CellTiterGlo, read-out: Cell growth inhibition activity, EGFR WT.
The target of a further experiment is BaF3_HER2WT cells (Homo sapiens, UniProt P04626). In words: Cell growth inhibition assay (CellTiterGlo), BaF3_HER2WT. As to conditions: 3-day treatment, CellTiterGlo, read-out: Cell growth inhibition activity, HER2 WT.
Sequence of BaF3_HER2WT cells (P04626 whole entry, change not shown): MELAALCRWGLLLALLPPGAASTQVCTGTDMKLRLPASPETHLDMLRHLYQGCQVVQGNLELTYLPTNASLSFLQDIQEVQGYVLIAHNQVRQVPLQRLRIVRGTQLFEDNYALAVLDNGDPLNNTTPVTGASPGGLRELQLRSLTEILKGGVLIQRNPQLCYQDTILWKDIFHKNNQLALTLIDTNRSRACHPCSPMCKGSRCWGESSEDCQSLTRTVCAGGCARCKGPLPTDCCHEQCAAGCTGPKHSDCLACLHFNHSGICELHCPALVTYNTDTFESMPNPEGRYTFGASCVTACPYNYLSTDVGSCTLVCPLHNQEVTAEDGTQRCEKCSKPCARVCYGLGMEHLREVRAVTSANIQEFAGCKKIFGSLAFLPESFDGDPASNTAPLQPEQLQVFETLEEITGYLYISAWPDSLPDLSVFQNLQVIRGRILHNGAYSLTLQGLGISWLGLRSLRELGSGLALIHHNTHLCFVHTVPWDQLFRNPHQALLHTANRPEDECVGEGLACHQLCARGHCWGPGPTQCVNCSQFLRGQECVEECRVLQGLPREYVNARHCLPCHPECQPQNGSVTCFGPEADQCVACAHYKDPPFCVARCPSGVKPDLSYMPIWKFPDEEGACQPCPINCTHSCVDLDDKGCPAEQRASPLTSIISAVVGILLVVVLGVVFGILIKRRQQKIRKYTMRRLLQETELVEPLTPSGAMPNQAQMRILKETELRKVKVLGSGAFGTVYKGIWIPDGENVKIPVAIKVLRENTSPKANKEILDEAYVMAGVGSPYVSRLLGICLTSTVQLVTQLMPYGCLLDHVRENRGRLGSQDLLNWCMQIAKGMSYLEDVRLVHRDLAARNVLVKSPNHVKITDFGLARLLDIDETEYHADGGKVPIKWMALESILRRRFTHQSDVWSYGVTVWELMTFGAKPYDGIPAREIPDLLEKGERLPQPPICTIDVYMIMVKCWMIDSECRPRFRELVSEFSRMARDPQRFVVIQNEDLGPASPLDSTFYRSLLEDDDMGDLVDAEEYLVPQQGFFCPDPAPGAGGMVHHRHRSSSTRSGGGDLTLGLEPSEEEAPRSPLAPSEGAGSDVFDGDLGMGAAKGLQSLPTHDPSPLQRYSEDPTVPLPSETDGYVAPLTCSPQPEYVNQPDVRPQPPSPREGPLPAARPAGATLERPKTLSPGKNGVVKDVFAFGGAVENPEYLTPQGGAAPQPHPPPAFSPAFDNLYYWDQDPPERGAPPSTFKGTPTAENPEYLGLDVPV

The structures appear in SMILES notation.

Sequence of BaF3_EGFRWT cells (P00533 whole entry, change not shown): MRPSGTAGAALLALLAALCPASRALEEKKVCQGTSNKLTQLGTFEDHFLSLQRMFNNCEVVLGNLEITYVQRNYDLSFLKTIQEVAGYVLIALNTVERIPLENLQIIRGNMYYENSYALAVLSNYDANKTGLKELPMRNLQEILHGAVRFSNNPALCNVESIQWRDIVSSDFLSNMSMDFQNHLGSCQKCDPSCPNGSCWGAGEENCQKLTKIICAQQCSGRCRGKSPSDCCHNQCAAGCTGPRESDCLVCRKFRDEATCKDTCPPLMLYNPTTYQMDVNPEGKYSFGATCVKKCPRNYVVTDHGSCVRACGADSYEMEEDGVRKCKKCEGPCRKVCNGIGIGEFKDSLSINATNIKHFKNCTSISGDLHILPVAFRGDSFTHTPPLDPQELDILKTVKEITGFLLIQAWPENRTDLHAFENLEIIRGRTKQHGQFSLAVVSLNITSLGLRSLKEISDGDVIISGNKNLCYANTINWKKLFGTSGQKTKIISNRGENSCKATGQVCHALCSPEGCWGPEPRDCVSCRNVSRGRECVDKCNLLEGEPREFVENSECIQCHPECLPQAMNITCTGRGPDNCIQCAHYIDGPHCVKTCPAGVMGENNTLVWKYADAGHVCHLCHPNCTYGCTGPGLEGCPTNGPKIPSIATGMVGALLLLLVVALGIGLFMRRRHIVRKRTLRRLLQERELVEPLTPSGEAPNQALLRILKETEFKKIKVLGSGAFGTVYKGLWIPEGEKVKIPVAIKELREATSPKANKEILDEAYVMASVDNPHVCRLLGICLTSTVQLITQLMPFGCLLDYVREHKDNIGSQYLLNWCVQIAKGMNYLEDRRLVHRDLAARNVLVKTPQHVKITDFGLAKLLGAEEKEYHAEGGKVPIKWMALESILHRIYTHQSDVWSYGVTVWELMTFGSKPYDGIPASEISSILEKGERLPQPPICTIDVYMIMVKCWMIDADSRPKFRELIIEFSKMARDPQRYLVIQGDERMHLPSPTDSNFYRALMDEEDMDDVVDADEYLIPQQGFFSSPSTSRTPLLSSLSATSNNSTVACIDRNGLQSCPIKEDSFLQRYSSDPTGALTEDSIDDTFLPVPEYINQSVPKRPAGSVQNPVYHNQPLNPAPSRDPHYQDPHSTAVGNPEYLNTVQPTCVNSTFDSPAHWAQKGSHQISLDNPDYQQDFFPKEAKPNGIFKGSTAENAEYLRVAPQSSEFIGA
Sequence of BaF3_HER2YVMA cells (P04626 with tags, fused parts or gaps DUP772-775): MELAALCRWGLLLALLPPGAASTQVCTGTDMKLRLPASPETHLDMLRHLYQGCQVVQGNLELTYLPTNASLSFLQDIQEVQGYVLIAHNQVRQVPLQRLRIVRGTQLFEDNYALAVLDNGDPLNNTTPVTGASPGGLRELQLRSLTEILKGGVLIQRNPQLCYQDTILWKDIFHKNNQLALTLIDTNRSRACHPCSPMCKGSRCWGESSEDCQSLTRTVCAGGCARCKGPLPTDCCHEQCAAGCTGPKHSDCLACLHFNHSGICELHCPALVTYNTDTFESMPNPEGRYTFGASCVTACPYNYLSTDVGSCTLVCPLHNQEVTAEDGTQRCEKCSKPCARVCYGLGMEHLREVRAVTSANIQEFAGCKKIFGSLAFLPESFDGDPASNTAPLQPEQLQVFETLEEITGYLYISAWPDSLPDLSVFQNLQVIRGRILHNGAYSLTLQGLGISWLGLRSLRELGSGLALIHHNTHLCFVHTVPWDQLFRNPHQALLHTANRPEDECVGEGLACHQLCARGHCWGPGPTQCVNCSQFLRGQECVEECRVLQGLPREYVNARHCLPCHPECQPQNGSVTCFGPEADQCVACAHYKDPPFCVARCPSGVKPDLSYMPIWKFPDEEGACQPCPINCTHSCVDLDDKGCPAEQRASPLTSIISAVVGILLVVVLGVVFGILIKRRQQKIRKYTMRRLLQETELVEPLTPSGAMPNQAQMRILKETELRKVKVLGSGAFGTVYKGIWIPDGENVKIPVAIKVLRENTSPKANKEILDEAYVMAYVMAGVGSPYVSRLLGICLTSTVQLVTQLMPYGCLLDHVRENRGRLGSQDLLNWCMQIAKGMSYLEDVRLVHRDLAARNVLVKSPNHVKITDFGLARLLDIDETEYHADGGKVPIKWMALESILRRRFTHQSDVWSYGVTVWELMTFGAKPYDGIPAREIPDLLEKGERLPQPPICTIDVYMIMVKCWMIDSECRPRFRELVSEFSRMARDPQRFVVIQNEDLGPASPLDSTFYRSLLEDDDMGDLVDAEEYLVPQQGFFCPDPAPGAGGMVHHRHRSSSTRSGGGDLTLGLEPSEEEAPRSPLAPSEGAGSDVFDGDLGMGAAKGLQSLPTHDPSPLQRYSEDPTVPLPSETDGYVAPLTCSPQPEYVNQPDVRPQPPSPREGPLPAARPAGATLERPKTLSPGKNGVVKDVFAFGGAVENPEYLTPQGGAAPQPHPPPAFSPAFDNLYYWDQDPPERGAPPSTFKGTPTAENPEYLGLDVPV

As for `C=C(CN(C)C)C(=O)N1C2CCC1CN(c1ccn3ncnc(Nc4ccc(Oc5ccn6ncnc6c5)c(C)c4)c13)C2` [Example 48, 1-(3-(4-((4-([1,2,4]triazolo[1,5-a]pyridin-7-yloxy)-3-methylphenyl)amino)pyrrolo[2,1-f][1,2,4]triazin-5-yl)-3,8-diazabicyclo[3.2.1]octan-8-yl)-2-((dimethylamino)methyl)prop-2-en-1-one], the GI50 on BaF3_HER2YVMA cells was 1500 to 5000 nM; on BaF3_EGFRWT cells it was 1500 to 5000 nM; at BaF3_HER2WT cells it was 200 to 500 nM.

For `C=C(CN(C)C)C(=O)N1CC2CCC(C1)N2c1ccn2ncnc(Nc3ccc(Oc4ccn5ncnc5c4)c(C)c3)c12` [Example 49, 1-(8-(4-((4-([1,2,4]triazolo[1,5-a]pyridin-7-yloxy)-3-methylphenyl)amino)pyrrolo[2,1-f][1,2,4]triazin-5-yl)-3,8-diazabicyclo[3.2.1]octan-3-yl)-2-((dimethylamino)methyl)prop-2-en-1-one acetate], the GI50 on BaF3_HER2YVMA cells is < 200 nM; at BaF3_EGFRWT cells it was 1500 to 5000 nM; at BaF3_HER2WT cells it was < 200 nM.

As to `Cc1cc(Nc2ncnn3ccc(C4(O)CCN(C(=O)/C=C/CN(C)C)CC4)c23)ccc1Oc1ccn2ncnc2c1` [Example 50, (E)-1-(4-(4-((4-([1,2,4]triazolo[1,5-a]pyridin-7-yloxy)-3-methylphenyl)amino)pyrrolo[2,1-f][1,2,4]triazin-5-yl)-4-hydroxypiperidin-1-yl)-4-(dimethylamino)but-2-en-1-one], the GI50 on BaF3_HER2YVMA cells lay within 500 to 1500 nM; on BaF3_EGFRWT cells, 1500 to 5000 nM; at BaF3_HER2WT cells, 200 to 500 nM.

Regarding `Cc1cc(Nc2ncnn3ccc(C4(O)CN(C(=O)/C=C/CN(C)C)C4)c23)ccc1Oc1ccn2ncnc2c1` [Example 51, (E)-1-(3-(4-((4-([1,2,4]triazolo[1,5-a]pyridin-7-yloxy)-3-methylphenyl)amino)pyrrolo[2,1-f][1,2,4]triazin-5-yl)-3-hydroxyazetidine-1-yl)-4-(dimethylamino)but-2-en-1-one], the GI50 on BaF3_HER2YVMA cells is < 200 nM; on BaF3_EGFRWT cells, 1500 to 5000 nM; on BaF3_HER2WT cells it was < 200 nM.

As for `COC1(c2ccn3ncnc(Nc4ccc(Oc5ccn6ncnc6c5)c(C)c4)c23)CCN(C(=O)/C=C/CN(C)C)CC1` [Example 52, (E)-1-(4-(4-((4-([1,2,4]triazolo[1,5-a]pyridin-7-yloxy)-3-methylphenyl)amino)pyrrolo[2,1-f][1,2,4]triazin-5-yl)-4-methoxypiperidin-1-yl)-4-(dimethylamino)but-2-en-1-one], the GI50 at BaF3_HER2YVMA cells was 500 to 1500 nM; at BaF3_EGFRWT cells, 1500 to 5000 nM; at BaF3_HER2WT cells, 200 to 500 nM.

For the compound `Cc1cc(Nc2ncnn3ccc(C4=CCN(C(=O)/C=C/CN(C)C)CC4)c23)ccc1Oc1ccn2ncnc2c1` [Example 53, (E)-1-(4-(4-((4-([1,2,4]triazolo[1,5-a]pyridin-7-yloxy)-3-methylphenyl)amino)pyrrolo[2,1-f][1,2,4]triazin-5-yl)-3,6-dihydropyridin-1(2H)-yl)-4-(dimethylamino)but-2-en-1-one], the figures for the GI50 at BaF3_HER2YVMA cells, at BaF3_EGFRWT cells and at BaF3_HER2WT cells were < 200 nM, 1500 to 5000 nM and < 200 nM, respectively.

As for `Cc1cc(Nc2ncnn3ccc(N4CCN(C(=O)/C=C/CN(C)C)CC4=O)c23)ccc1Oc1ccn2ncnc2c1` [Example 54, (E)-1-(4-((4-([1,2,4]triazolo[1,5-a]pyridin-7-yloxy)-3-methylphenyl)amino)pyrrolo[2,1-f][1,2,4]triazin-5-yl)-4-(4-(dimethylamino)but-2-enoyl)piperazin-2-one], the figures for the GI50 at BaF3_HER2YVMA cells, on BaF3_EGFRWT cells and on BaF3_HER2WT cells were 1500 to 5000 nM, 1500 to 5000 nM and 500 to 1500 nM, respectively.

Take `C=CC(=O)N1CCC2CCC(C1)N2c1ccn2ncnc(Nc3ccc(Oc4ccn5ncnc5c4)c(C)c3)c12` (stereo not drawn) [Example 55, 1-(9-(4-((4-([1,2,4]triazolo[1,5-a]pyridin-7-yloxy)-3-methylphenyl)amino)pyrrolo[2,1-f][1,2,4]triazin-5-yl)-3,9-diazabicyclo[4.2.1]nonan-3-yl)prop-2-en-1-one]: the GI50 on BaF3_HER2YVMA cells is 500 to 1500 nM; at BaF3_EGFRWT cells it was 1500 to 5000 nM; at BaF3_HER2WT cells it was < 200 nM.

Take `Cc1cc(Nc2ncnn3ccc(C4CCN(C(=O)/C=C/CN5CCOCC5)CC4)c23)ccc1Oc1ccn2ncnc2c1` [Example 56, (E)-1-(4-(4-((4-([1,2,4]triazolo[1,5-a]pyridin-7-yloxy)-3-methylphenyl)amino)pyrrolo[2,1-f][1,2,4]triazin-5-yl)piperidin-1-yl)-4-morpholinobut-2-en-1-one]: the GI50 on BaF3_HER2YVMA cells was < 200 nM; on BaF3_EGFRWT cells, 1500 to 5000 nM; at BaF3_HER2WT cells, < 200 nM.

Regarding `Cc1cc(Nc2ncnn3ccc(C4CCN(C(=O)/C=C/CN5CCCCC5)CC4)c23)ccc1Oc1ccn2ncnc2c1` [Example 57, (E)-1-(4-(4-((4-([1,2,4]triazolo[1,5-a]pyridin-7-yloxy)-3-methylphenyl)amino)pyrrolo[2,1-f][1,2,4]triazin-5-yl)piperidin-1-yl)-4-(piperidin-1-yl)but-2-en-1-one], the values for the GI50 at BaF3_HER2YVMA cells, on BaF3_EGFRWT cells and on BaF3_HER2WT cells were < 200 nM, 1500 to 5000 nM and < 200 nM, respectively.

On to `COC/C=C/C(=O)N1CCC(c2ccn3ncnc(Nc4ccc(Oc5ccn6ncnc6c5)c(C)c4)c23)CC1` [Example 58, (E)-1-(4-(4-((4-([1,2,4]triazolo[1,5-a]pyridin-7-yloxy)-3-methylphenyl)amino)pyrrolo[2,1-f][1,2,4]triazin-5-yl)piperidin-1-yl)-4-methoxybut-2-en-1-one], for which the GI50 was 500 to 1500 nM on BaF3_HER2YVMA cells, 1500 to 5000 nM on BaF3_EGFRWT cells and < 200 nM on BaF3_HER2WT cells.

With `C#CCN(C)C/C=C/C(=O)N1CCC(c2ccn3ncnc(Nc4ccc(Oc5ccn6ncnc6c5)c(C)c4)c23)CC1` [Example 59, (E)-1-(4-(4-((4-([1,2,4]triazolo[1,5-a]pyridin-7-yloxy)-3-methylphenyl)amino)pyrrolo[2,1-f][1,2,4]triazin-5-yl)piperidin-1-yl)-4-(methyl(prop-2-yn-1-yl)amino)but-2-en-1-one], the GI50 at BaF3_HER2YVMA cells is 200 to 500 nM; at BaF3_EGFRWT cells, 1500 to 5000 nM; on BaF3_HER2WT cells it was < 200 nM.

Consider `Cc1cc(Nc2ncnn3ccc(C4CN(C(=O)/C=C/CN5CCC(F)CC5)C4)c23)ccc1Oc1ccn2ncnc2c1` [Example 62, (E)-1-(3-(4-((4-([1,2,4]triazolo[1,5-a]pyridin-7-yloxy)-3-methylphenyl)amino)pyrrolo[2,1-f][1,2,4]triazin-5-yl)azetidin-1-yl)-4-(4-fluoropiperidin-1-yl)but-2-en-1-one], for which the GI50 is < 200 nM on BaF3_HER2YVMA cells, 1500 to 5000 nM at BaF3_EGFRWT cells and < 200 nM at BaF3_HER2WT cells.

As for `Cc1cc(Nc2ncnn3ccc(N4CCN(C(=O)C(F)Cl)CC(F)(F)C4)c23)ccc1Oc1ccn2ncnc2c1` (stereo not drawn) [Example 63, 1-(4-(4-((4-([1,2,4]triazolo[1,5-a]pyridin-7-yloxy)-3-methylphenyl)amino)pyrrolo[2,1-f][1,2,4]triazin-5-yl)-6,6-difluoro-1,4-diazepan-1-yl)-2-chloro-2-fluoroethan-1-one], the GI50 lay within 500 to 1500 nM at BaF3_HER2YVMA cells, 1500 to 5000 nM at BaF3_EGFRWT cells and 500 to 1500 nM on BaF3_HER2WT cells.

On to `Cc1cc(Nc2ncnn3ccc(C4CCN(C(=O)C#CCN(C)C)CC4)c23)ccc1Oc1ccn2ncnc2c1` [Example 64, 1-(4-(4-((4-([1,2,4]triazolo[1,5-a]pyridin-7-yloxy)-3-methylphenyl)amino)pyrrolo[2,1-f][1,2,4]triazin-5-yl)piperidin-1-yl)-4-(dimethylamino)but-2-yn-1-one], for which the results for the GI50 at BaF3_HER2YVMA cells, at BaF3_EGFRWT cells and at BaF3_HER2WT cells were < 200 nM, 200 to 500 nM and < 200 nM, respectively.

Regarding `Cc1cc(Nc2ncnn3ccc(C4CCN(C(=O)/C=C/C5CCCN5C)CC4)c23)ccc1Oc1ccn2ncnc2c1` (stereo not drawn) [Example 65, (E)-1-(4-(4-((4-([1,2,4]triazolo[1,5-a]pyridin-7-yloxy)-3-methylphenyl)amino)pyrrolo[2,1-f][1,2,4]triazin-5-yl)piperidin-1-yl)-3-(1-methylpyrrolidin-2-yl)prop-2-en-1-one], the GI50 at BaF3_HER2YVMA cells was < 200 nM; at BaF3_EGFRWT cells it was 1500 to 5000 nM; on BaF3_HER2WT cells it was < 200 nM.

With `Cc1cc(Nc2ncnn3ccc(C4CN(C(=O)/C=C/C5CCCN5C)C4)c23)ccc1Oc1ccn2ncnc2c1` (stereo not drawn) [Example 66, (E)-1-(3-(4-((4-([1,2,4]triazolo[1,5-a]pyridin-7-yloxy)-3-methylphenyl)amino)pyrrolo[2,1-f][1,2,4]triazin-5-yl)azetidin-1-yl)-3-(1-methylpyrrolidin-2-yl)prop-2-en-1-one], the GI50 at BaF3_HER2YVMA cells is < 200 nM; on BaF3_EGFRWT cells, 1500 to 5000 nM; at BaF3_HER2WT cells it was < 200 nM.

Take `C=C(CN(C)C)C(=O)N1CC(c2ccn3ncnc(Nc4ccc(Oc5ccc6c(c5)ncn6C)c(C)c4)c23)C1` [Example 67, 2-((dimethylamino)methyl)-1-(3-(4-((3-methyl-4-((1-methyl-1H-benzo[d]imidazol-5-yl)oxy)phenyl)amino)pyrrolo[2,1-f][1,2,4]triazin-5-yl)azetidin-1-yl)prop-2-en-1-one]: the GI50 on BaF3_HER2YVMA cells was < 200 nM; on BaF3_EGFRWT cells, 500 to 1500 nM; on BaF3_HER2WT cells it was < 200 nM.

For `Cc1cc(Nc2ncnn3ccc(N4CCCC(N(C)C(=O)/C=C/CN(C)C)C4)c23)ccc1Oc1ccn2ncnc2c1` (stereo not drawn) [Example 68, (E)-N-(1-(4-((4-([1,2,4]triazolo[1,5-a]pyridin-7-yloxy)-3-methylphenyl)amino)pyrrolo[2,1-f][1,2,4]triazin-5-yl)piperidin-3-yl)-4-(dimethylamino)-N-methylbut-2-enamide], the GI50 at BaF3_HER2YVMA cells is < 200 nM; at BaF3_EGFRWT cells, 1500 to 5000 nM; on BaF3_HER2WT cells, < 200 nM.

With `C=CC(=O)N(C)C1CCCN(c2ccn3ncnc(Nc4ccc(Oc5ccn6ncnc6c5)c(C)c4)c23)C1` (stereo not drawn) [Example 69, N-(1-(4-((4-([1,2,4]triazolo[1,5-a]pyridin-7-yloxy)-3-methylphenyl)amino)pyrrolo[2,1-f][1,2,4]triazin-5-yl)piperidin-3-yl)-N-methylacrylamide], the GI50 at BaF3_HER2YVMA cells was 200 to 500 nM; at BaF3_EGFRWT cells, 1500 to 5000 nM; at BaF3_HER2WT cells, < 200 nM.

For the origin of these results see patent publication US20240132521A1, “COMPOUNDS AND METHODS FOR MODULATING HER2” (Iambic Therapeutics, Inc., priority 2022, published 2024).
